Here are results for 10 compounds from paper PMC3003262 (Drug development research, 2010).

SMILES strings stand for the structures. Read-outs that look alike come from different tables or passages of the source.

In experiment [1] the target is T1, human CB1 wild-type (WT) receptor (Homo sapiens, UniProt P21554). In words: Competition binding with [3H]SR141716A, wild-type CB1 membranes.
Experiment [2] concerns the target human CB1 H270A mutant receptor (Homo sapiens, UniProt P21554, H270A). Kind of experiment: biochemical. In kind it is binding.
The target in experiment [3] is T2, human CB1 I271A mutant receptor (Homo sapiens, UniProt P21554, I271A). In words: biochemical. Conditions: for loss in affinity relative to wild-type receptor: I271A receptor vs WT. Type of experiment: binding.
T2 sequence (P21554 whole entry I271A): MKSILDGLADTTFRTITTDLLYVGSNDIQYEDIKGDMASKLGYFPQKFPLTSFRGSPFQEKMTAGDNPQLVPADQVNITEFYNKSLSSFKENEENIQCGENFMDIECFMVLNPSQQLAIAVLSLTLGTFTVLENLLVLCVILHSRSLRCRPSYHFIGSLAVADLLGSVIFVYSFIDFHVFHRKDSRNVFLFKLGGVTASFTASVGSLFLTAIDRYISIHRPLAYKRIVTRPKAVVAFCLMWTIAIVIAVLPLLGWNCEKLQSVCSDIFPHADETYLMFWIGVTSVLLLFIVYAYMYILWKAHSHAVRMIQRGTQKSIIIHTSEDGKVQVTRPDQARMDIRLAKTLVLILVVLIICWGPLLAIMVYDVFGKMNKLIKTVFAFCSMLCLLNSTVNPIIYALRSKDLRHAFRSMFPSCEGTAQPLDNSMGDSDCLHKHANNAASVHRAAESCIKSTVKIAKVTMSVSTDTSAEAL
The target in experiment [4] is T3, human CB1 P269A mutant receptor (Homo sapiens, UniProt P21554, P269A). Kind of experiment: biochemical. In kind it is binding.
T3 sequence (P21554 whole entry P269A): as the sequence (P21554 whole entry I271A) above, with P269A, A271I counted along it
In experiment [5] the target is T4, human CB1 F268W mutant receptor (Homo sapiens, UniProt P21554, F268W). In words: biochemical. Type of experiment: binding. As to conditions: for loss in affinity relative to wild-type receptor: F268W receptor vs WT.
T4 sequence (P21554 whole entry F268W): as the sequence (P21554 whole entry I271A) above, with F268W, A271I counted along it
The target in experiment [6] is T1, human CB1 wild-type (WT) receptor. Conditions: cited from earlier work.
Experiment [7] deals with T3, human CB1 P269A mutant receptor. Conditions: cited from earlier work.
The target of experiment [8] is T2, human CB1 I271A mutant receptor. Conditions: cited from earlier work.
The target in experiment [9] is T4, human CB1 F268W mutant receptor. Conditions: cited from earlier work.

T1 sequence (P21554 whole entry): as the sequence (P21554 whole entry I271A) above, with A271I counted along it
Sequence of human CB1 H270A mutant receptor (P21554 whole entry H270A): as the sequence (P21554 whole entry I271A) above, with H270A, A271I counted along it

For `CS(=O)(=O)N(c1cc(F)cc(F)c1)C1CN(C(c2ccc(Cl)cc2)c2ccc(Cl)cc2)C1` [AVE1625, N-{1-[bis(4-chloro-phenyl)-methyl]azetidin-3-yl}-N-(3,5-difluorophenyl)methanesulfonamide], the Ki in [1] came to 0.64 nM; in [2], 1.2 nM; in [3], 1.8 nM; in [4] it was 0.88 nM; in [5], 2.2 nM. For the same compound, the “loss in affinity relative to wild-type receptor” value in experiment [3] and in experiment [5] was 3 fold throughout.

In the case of `N#Cc1c(Oc2cccc(OS(=O)(=O)CCCC(F)(F)F)c2)cccc1C(F)(F)F` [BAY593074, 3-[2-cyano-3-(trifluoromethyl)phenoxy]phenyl-4,4,4-trifluoro-1-butanesulfonate], the Ki in experiment [1] amounted to 249 nM; in [2], 412 nM; in [3] it was 2870 nM; in [4], 341 nM; in experiment [5], 1860 nM. For the same compound, in [3], the “binding affinity diminished relative to wild-type receptor (up to)” value was “up to 12 fold”.

As to `CCCCCCC(C)(C)c1cc(O)c2c(c1)OC(C)(C)[C@@H]1CC=C(CO)C[C@@H]21` [HU-210, (−)-11-hydroxydimethylheptyl-Δ8-tetrahydrocannabinol], the Ki in [6] was 3.7 nM; in experiment [7], 22.6 nM; in experiment [8], 310 nM; in experiment [2], 13.8 nM; in [9], 1670 nM.

On to `CCCCC(C)(C)c1cc(O)c2c(c1)OC(C)(C)C1CC=C(C)CC21` (stereo not drawn) [JWH061, 3-(1′,1′-dimethylpentyl)-Δ;8-tetrahydrocannabinol], for which the Ki in experiment [2] worked out at 373 nM; in experiment [3], 773 nM; in experiment [4], 1730 nM; in [5], 3460 nM.

As to `CC1=CCC2C(C1)c1c(O)cc(C(C)(C)C)cc1OC2(C)C` (stereo not drawn) [JWH179, 3-(1′,1′-dimethylethyl)-Δ8-tetrahydrocannabinol], the Ki worked out at 90 nM in experiment [2], 194 nM in experiment [3], 798 nM in experiment [4] and 1110 nM in experiment [5].

With `O=C(NN1CCCCC1)c1nn(-c2ccc(Cl)cc2Cl)c2c1CCCc1cc(Cl)ccc1-2` [NESS0327], the Ki in experiment [2] was determined as 6.1 nM; in experiment [3], 11.2 nM; in experiment [4] it was 3 nM; in experiment [5], 21 nM. In addition, the “loss in affinity relative to wild-type receptor” value in [5] is reported as 5 fold.

Regarding `CCCCCc1ccc(-n2nc(C(=O)NN3CCCCC3)c(C)c2-c2ccc(Cl)cc2)cc1` [O-1255], the Ki in experiment [2] came to 113 nM; in experiment [3], 460 nM; in experiment [4], 74.7 nM; in experiment [5], 310 nM. Besides, the “loss in affinity relative to wild-type receptor” value in experiment [3] came to 6 fold; in [5], 4 fold.

In the case of `CCCCCc1ccc(-c2c(C)c(C(=O)NN3CCCCC3)nn2-c2ccc(Cl)cc2Cl)cc1` [O-1302, [I]N[/I]-(piperidin-1-yl)-1-(2,4-dichlorophenyl)-4-methyl-5-(4-pentylphenyl)-1H-pyrazole-3-carboxamide], the Ki was found to be 2.6 nM in experiment [2], 38.4 nM in experiment [3], 1.1 nM in experiment [4] and 26.2 nM in experiment [5].

Consider `CCCCC(C)c1ccc(-c2c(-c3ccc(Cl)cc3Cl)nn(N3CCCCC3)c2C)cc1` (stereo not drawn) [O-1690, N-(N-piperdyl)-3-(2,4-dichlrophenyl)-4-(4′-(1′-methylpentyl)phenyl)-5-methylpyrazole], for which the Ki was found to be 2 nM in [2], 77.3 nM in experiment [3], 0.96 nM in experiment [4] and 23.3 nM in [5].

Turning to `CC1=CC[C@@H]2[C@@H](C1)c1ccc(CC#CCCCNS(C)(=O)=O)cc1OC2(C)C` [O-2050, (6aR,10aR)-3-(1-methanesulfonylamino-4-hexyn-6-yl)-6a,7, 10,10a-tetrahydro-6,6,9-trimethyl-6H-dibenzo[b,d]pyran], the Ki in [1] is 3.4 nM; in [2] it was 40.2 nM; in [3] it was 166 nM; in experiment [4], 68.6 nM; in experiment [5], 148 nM. Further, the “reduced affinity relative to wild-type receptor” value in experiment [2] (H270A receptor vs WT) is 12 fold; in [4] (P269A receptor vs WT), 20 fold. In addition, the figures for the “loss in affinity relative to wild-type receptor” value in [3] and in experiment [5] were 49 fold and 44 fold, respectively.

By Ki is commonly meant the equilibrium dissociation constant of an inhibitor or competing ligand from its target.
